Data reported in patent US11370803B2, “Heteroaryl plasma kallikrein inhibitors” (Takeda Pharmaceutical Company Limited, priority 2019, dated 2022).

The molecules below were run against human activated kallikrein enzyme (Homo sapiens (Human), UniProt P03952) (assay: Inhibition of human activated plasma kallikrein, fluorogenic peptide substrate assay (500 pM enzyme format)). Details: 500 pM activated kallikrein, 300 uM Pro-Phe-Arg-7-amido-4-methylcoumarin substrate, 30 min preincubation, 10 min reaction at RT; read-out: Primary Dose Response Assay: Average EC50.
Assay type: biochemical
Protocol: Inhibitory Activity of Exemplary Compounds against Plasma Kallikrein. Example compounds were evaluated for inhibition of the human activated kallikrein enzyme in two formats of an assay employing a fluorogenic peptide substrate. In one assay format, the concentrations of reagents were as follows: 20 mM Tris pH 7.5, 1 mM EDTA, 150 mM sodium chloride, 0.1% PEG-400, 0.1% Triton X-100, 500 pM activated kallikrein enzyme, 300 uM Pro-Phe-Arg-7-amido-4-methylcoumarin substrate. Prior to reaction initiation with substrate, enzyme and inhibitors were preincubated for 30 min at RT. After initiation with substrate, reactions were incubated for 10 min at RT and fluorescence emission at 460 nm from 380 nm excitation measured with a microplate reader. In another assay format, the concentrations of reagents were as follows: 20 mM Tris pH 7.5, 1 mM EDTA, 150 mM sodium chloride, 0.1% PEG-400, 0.1% Triton X-100, 5 pM activated kallikrein enzyme, 300 uM Pro-Phe-Arg-7-amido-4-methylcoumarin substrate. Prior to reaction initiation with substrate, enzyme and inhibitors were preincubated for 30 min at RT. After initiation with substrate, reactions were incubated for 18 h at RT and fluorescence emission at 460 nm from 380 nm excitation measured with a microplate reader.
Table 1 provides the results of the assay in the format with 500 pM activated kallikrein assay. For the compounds listed in Table 1, the EC50 values are reported according to the following ranges: A≤50 nM; 50 nM<B≤200 nM; 200 nM<C≤1000 nM; 1000 nM<D.

Chain of human activated kallikrein enzyme (P03952 391-638): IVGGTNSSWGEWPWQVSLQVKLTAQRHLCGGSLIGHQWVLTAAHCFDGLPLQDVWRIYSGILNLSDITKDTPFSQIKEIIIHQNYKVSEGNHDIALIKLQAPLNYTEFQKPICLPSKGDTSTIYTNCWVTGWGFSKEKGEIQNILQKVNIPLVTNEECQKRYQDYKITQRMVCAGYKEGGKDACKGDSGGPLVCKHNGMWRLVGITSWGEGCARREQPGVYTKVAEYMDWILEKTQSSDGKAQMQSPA
Chain of human activated kallikrein enzyme (P03952 20-390 partner): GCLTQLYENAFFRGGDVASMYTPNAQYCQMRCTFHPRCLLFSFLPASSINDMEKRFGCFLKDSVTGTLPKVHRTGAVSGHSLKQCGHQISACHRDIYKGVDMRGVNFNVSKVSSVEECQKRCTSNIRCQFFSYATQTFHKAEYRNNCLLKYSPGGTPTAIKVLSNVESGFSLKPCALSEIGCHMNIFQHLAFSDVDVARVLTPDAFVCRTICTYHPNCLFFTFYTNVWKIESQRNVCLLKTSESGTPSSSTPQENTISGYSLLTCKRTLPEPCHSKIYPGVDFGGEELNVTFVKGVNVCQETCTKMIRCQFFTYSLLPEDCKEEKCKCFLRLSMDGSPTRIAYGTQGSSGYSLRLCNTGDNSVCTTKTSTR

Row | Structure (SMILES) | EC50 [nM]
1 | O=C(Cc1ncn2ccc(Cl)cc12)NCc1cn(Cc2cn3cc(C4CC4)ccc3n2)nn1 [Compound I-1, 2-(7-chloroimidazo[1,5-a]pyridin-1-yl)-N-((1-((6-cyclopropylimidazo[1,2-a]pyridin-2-yl)methyl)-1H-1,2,3-triazol-4-yl)methyl)acetamide] | ≤ 50
2 | Fc1c(Cl)ccn2cnc(C(NCc3cn(Cc4cn5cc(C6CC6)ccc5n4)nn3)C(F)(F)F)c12 (stereo not drawn) [Compound I-2, 1-(7-chloro-8-fluoroimidazo[1,5-a]pyridin-1-yl)-N-((1-((6-cyclopropylimidazo[1,2-a]pyridin-2-yl)methyl)-1H-1,2,3-triazol-4-yl)methyl)-2,2,2-trifluoroethan-1-amine] | > 1000
3 | O=C(NCc1cn(Cc2cn3cc(C4CC4)ccc3n2)nn1)c1ncn2ccc(Cl)c(F)c12 [Compound I-3, 7-chloro-N-((1-((6-cyclopropylimidazo[1,2-a]pyridin-2-yl)methyl)-1H-1,2,3-triazol-4-yl)methyl)-8-fluoroimidazo[1,5-a]pyridine-1-carboxamide] | 50 to 200
4 | O=S(=O)(NCc1ncn2ccc(Cl)c(F)c12)c1cnn(Cc2cn3cc(C4CC4)ccc3n2)c1 [Compound I-4, N-((7-chloro-8-fluoroimidazo[1,5-a]pyridin-1-yl)methyl)-1-((6-cyclopropylimidazo[1,2-a]pyridin-2-yl)methyl)-1H-pyrazole-4-sulfonamide] | 200 to 1000
5 | O=S(=O)(NCc1ncn2ccc(Cl)c(F)c12)c1cn(Cc2cn3cc(C4CC4)ccc3n2)nn1 [Compound I-5, N-((7-chloro-8-fluoroimidazo[1,5-a]pyridin-1-yl)methyl)-1-((6-cyclopropylimidazo[1,2-a]pyridin-2-yl)methyl)-1H-1,2,3-triazole-4-sulfonamide] | 200 to 1000
6 | O=S(=O)(NCc1cn(Cc2cn3cc(C4CC4)ccc3n2)nn1)c1ncn2ccc(Cl)c(F)c12 [Compound I-6, 7-chloro-N-((1-((6-cyclopropylimidazo[1,2-a]pyridin-2-yl)methyl)-1H-1,2,3-triazol-4-yl)methyl)-8-fluoroimidazo[1,5-a]pyridine-1-sulfonamide] | ≤ 50
7 | CC(NS(=O)(=O)c1ncn2ccc(Cl)c(F)c12)c1cn(Cc2cn3cc(C4CC4)ccc3n2)nn1 (stereo not drawn) [Compound I-7, 7-chloro-N-(1-(1-((6-cyclopropylimidazo[1,2-a]pyridin-2-yl)methyl)-1H-1,2,3-triazol-4-yl)ethyl)-8-fluoroimidazo[1,5-a]pyridine-1-sulfonamide] | ≤ 50
8 | O=C(NCc1ncn2ccc(Cl)c(F)c12)c1cn2c(n1)CCC2c1cn2cc(C3CC3)ccc2n1 (stereo not drawn) [Compound I-8, N-((7-chloro-8-fluoroimidazo[1,5-a]pyridin-1-yl)methyl)-5-(6-cyclopropylimidazo[1,2-a]pyridin-2-yl)-6,7-dihydro-5H-pyrrolo[1,2-a]imidazole-2-carboxamide] | ≤ 50
9 | O=C(NCc1ncn2ccc(Cl)c(F)c12)c1cnc2n1C(c1cn3cc(C4CC4)ccc3n1)CC2 (stereo not drawn) [Compound I-9, N-((7-chloro-8-fluoroimidazo[1,5-a]pyridin-1-yl)methyl)-5-(6-cyclopropylimidazo[1,2-a]pyridin-2-yl)-6,7-dihydro-5H-pyrrolo[1,2-a]imidazole-3-carboxamide] | 200 to 1000

Now from value to molecule:

Row | EC50 [nM] | Structure (SMILES)
10 | ≤ 50 | N#Cc1ccn2cnc(CNC(=O)c3cnn(Cc4cn5cc(C6CC6)ccc5n4)c3)c2c1 [Compound I-10, N-((7-cyanoimidazo[1,5-a]pyridin-1-yl)methyl)-1-((6-cyclopropylimidazo[1,2-a]pyridin-2-yl)methyl)-1H-pyrazole-4-carboxamide]
11 | ≤ 50 | Fc1c(Cl)ccn2cnc(CNCc3cn(Cc4cn5cc(C6CC6)ccc5n4)nn3)c12 [Compound I-11, 1-(7-chloro-8-fluoroimidazo[1,5-a]pyridin-1-yl)-N-((1-((6-cyclopropylimidazo[1,2-a]pyridin-2-yl)methyl)-1H-1,2,3-triazol-4-yl)methyl)methanamine]
12 | 50 to 200 | CC(NCc1ncn2ccc(Cl)c(F)c12)c1cn(Cc2cn3cc(C4CC4)ccc3n2)nn1 (stereo not drawn) [Compound I-12, N-((7-chloro-8-fluoroimidazo[1,5-a]pyridin-1-yl)methyl)-1-(1-((6-cyclopropylimidazo[1,2-a]pyridin-2-yl)methyl)-1H-1,2,3-triazol-4-yl)ethan-1-amine]
13 | ≤ 50 | CC(NC(=O)Cc1ncn2ccc(Cl)cc12)c1cn(Cc2cn3cc(C4CC4)ccc3n2)nn1 (stereo not drawn) [Compound I-13, 2-(7-chloroimidazo[1,5-a]pyridin-1-yl)-N-(1-(1-((6-cyclopropylimidazo[1,2-a]pyridin-2-yl)methyl)-1H-1,2,3-triazol-4-yl)ethyl)acetamide]
14 | ≤ 50 | COC(=O)c1cc(C2CC2)cn2cc(Cn3cc(CNCc4ncn5ccc(Cl)c(F)c45)nn3)nc12 [Compound I-14, Methyl 2-((4-((((7-chloro-8-fluoroimidazo[1,5-a]pyridin-1-yl)methyl)amino)methyl)-1H-1,2,3-triazol-1-yl)methyl)-6-cyclopropylimidazo[1,2-a]pyridine-8-carboxylate]
15 | 200 to 1000 | O=C(O)c1cc(C2CC2)cn2cc(Cn3cc(CNCc4ncn5ccc(Cl)c(F)c45)nn3)nc12 [Compound I-15, 2-((4-((((7-chloro-8-fluoroimidazo[1,5-a]pyridin-1-yl)methyl)amino)methyl)-1H-1,2,3-triazol-1-yl)methyl)-6-cyclopropylimidazo[1,2-a]pyridine-8-carboxylic Acid]
16 | ≤ 50 | Fc1c(Cl)ccn2cnc(CNC(c3cnn(Cc4cn5cc(C6CC6)ccc5n4)c3)C(F)(F)F)c12 (stereo not drawn) [Compound I-16, N-((7-chloro-8-fluoroimidazo[1,5-a]pyridin-1-yl)methyl)-1-(1-((6-cyclopropylimidazo[1,2-a]pyridin-2-yl)methyl)-1H-pyrazol-4-yl)-2,2,2-trifluoroethan-1-amine]
17 | ≤ 50 | CCOC(=O)CCc1cc(C2CC2)cn2cc(Cn3cc(CNCc4ncn5ccc(Cl)c(F)c45)nn3)nc12 [Compound I-17a, Ethyl 3-(2-((4-((((7-chloro-8-fluoroimidazo[1,5-a]pyridin-1-yl)methyl)amino)methyl)-1H-1,2,3-triazol-1-yl)methyl)-6-cyclopropylimidazo[1,2-a]pyridin-8-yl)propanoate]
18 | ≤ 50 | O=C(O)CCc1cc(C2CC2)cn2cc(Cn3cc(CNCc4ncn5ccc(Cl)c(F)c45)nn3)nc12 [Compound I-17b, 3-(2-((4-((((7-chloro-8-fluoroimidazo[1,5-a]pyridin-1-yl)methyl)amino)methyl)-1H-1,2,3-triazol-1-yl)methyl)-6-cyclopropylimidazo[1,2-a]pyridin-8-yl)propanoic acid]
19 | ≤ 50 | Fc1c(Cl)ccn2cnc(CNCc3cn(Cc4cn5cc(C6CC6)cc(-n6cnnc6)c5n4)nn3)c12 [Compound I-18, 1-(7-chloro-8-fluoroimidazo[1,5-a]pyridin-1-yl)-N-((1-((6-cyclopropyl-8-(4H-1,2,4-triazol-4-yl)imidazo[1,2-a]pyridin-2-yl)methyl)-1H-1,2,3-triazol-4-yl)methyl)methanamine]
20 | 50 to 200 | O=C(Cc1ncn2ccc(Cl)cc12)NC(c1cnn(Cc2cn3cc(C4CC4)ccc3n2)c1)C(F)(F)F (stereo not drawn) [Compound I-19, 2-(7-chloroimidazo[1,5-a]pyridin-1-yl)-N-(1-(1-((6-cyclopropylimidazo[1,2-a]pyridin-2-yl)methyl)-1H-pyrazol-4-yl)-2,2,2-trifluoroethyl)acetamide]
21 | ≤ 50 | CN1CCN(c2cc(C3CC3)cn3cc(Cn4cc(C(=O)NCc5ncn6ccc(Cl)c(F)c56)nn4)nc23)CC1 [Compound I-20, N-((7-chloro-8-fluoroimidazo[1,5-a]pyridin-1-yl)methyl)-1-((6-cyclopropyl-8-(4-methylpiperazin-1-yl)imidazo[1,2-a]pyridin-2-yl)methyl)-1H-1,2,3-triazole-4-carboxamide]
